Experimental data: publication PMC12684298, “The Parkinson's Disease Drug Tolcapone and Analogues are Potent Glycomimetic Lectin Inhibitors of Pseudomonas aeruginosa LecA” (Angewandte Chemie (International Ed. in English), 2025)

Target: T1, LecA (Pseudomonas aeruginosa, UniProt Q05097)
T1 construct: made in house; host or cells: E. coli BL21 (DE3), plasmid pET25pa11
Experiment: Library screening using the FP competitive binding assay (three concentrations)
Settings: read-out: Activity [%] (% inhibition relative to 500 µM pNPGal)
From the text: Next, we screened a library of catechols from F. Hoffmann‐La Roche, the developer of Tolcapone, in the competitive binding assay to establish a structure–activity relationship. To this end, two sets of compounds with a molecular cut‐off of 500 Da were chosen: a first set of 342 compounds contained derivatives of Tolcapone, while a second set of 3222 compounds comprised catechols covering a larger chemical space. […] Tests were run in a 384‐well‐plate format at three concentrations (first set at 125, 32, and 4 µM, second set at 100, 25, and 3 µM) in presence of 10% DMSO and 250 µM 2‐mercaptoethanol to prevent interference by a potential unspecific reactivity of electron‐rich catechols as established earlier.^[ [30] ^]
The screening followed the same assay by Joachim et al.^[2] as described above. Compounds in DMSO (1 µL with the appropriate concentration) were plated using a robot into black 384-well microtiter plates (Greiner Bio-One, Germany, cat no 781900) by the Roche compound handling facility at four replicates per concentration and compound. A mixture of LecA, sulfo-Cy5-Gal and 2-mercaptoethanol in TBS/Ca (20 mM Tris, 147 mM NaCl, 2.6 mM KCl at pH 7.4 supplemented with 1 mM CaCl2) with DMSO was added at HIPS. Final concentrations in both screening rounds were the following: 5 µM LecA, 250 µM 2-mercaptoethanol, 10 nM sulfo-Cy5-Gal and 10% DMSO. Final concentrations of the 342 compounds of the first screening round were 125 µM, 32 µM and 4 µM. The 3222 compounds of the second screening round were tested at final concentrations of 100 µM, 25 µM and 3 µM. The plate was sealed (EASYseal, Greiner Bio-One, cat no 676001), briefly centrifuged and incubated at room temperature in the dark under shaking conditions. Fluorescence intensities were measured after 1 h and 24 h using a PheraStar FS plate reader (BMG Labtech GmbH, Germany) with spectral filters for excitation at 590 nm and emission at 675 nm and polarization was calculated after blank values of 5 µM LecA in TBS/Ca buffer with 250 µM 2-mercaptoethanol and 10% DMSO were subtracted from the test compounds. The data were analysed using the MARS Data Analysis software. […] All stated values are the average including the standard deviation based on three replicates for 100 µM and four replicates in the case of compounds at 125 µM.

T1 sequence (Q05097 whole entry): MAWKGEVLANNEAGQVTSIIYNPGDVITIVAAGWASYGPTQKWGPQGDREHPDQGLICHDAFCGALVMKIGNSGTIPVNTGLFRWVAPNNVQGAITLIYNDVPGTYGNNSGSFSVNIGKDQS

Compound | inhibition at 100 µM
Cc1ccc(C(=O)c2ccc(O)c(O)c2)cc1 [compound 6] | 13.8 ± 3.9%
O=C(NC12CC3CC(CC(C3)C1)C2)c1cc(O)c(O)c([N+](=O)[O-])c1 [compound 24] | 10 ± 3.6%
O=C(Nc1ccc(F)cc1)c1cc(O)c(O)c([N+](=O)[O-])c1 [compound 22] | 8.7 ± 3.3%
O=C(c1ccccc1)c1cc(O)c(O)c([N+](=O)[O-])c1 [compound 29] | 41.8 ± 7.3%

Target: T1, LecA
Experiment: biochemical
Assay type: binding
Settings: IC50, LecA inhibition, competitive binding assay (FP), tested up to 1.5 mM, n ≥ 2
Protocol: Therefore, we focused our attention on commercially available nitro‐catechols. Prominent derivatives are inhibitors of the enzyme catechol‐O‐methyltransferase (COMT) and approved drugs for the treatment of Parkinson's disease. Four commercial COMT inhibitors were thus evaluated in a previously reported competitive binding assay based on fluorescence polarisation (FP, Table 1, Figure 1).^[ [32] ^]
The competitive binding assay was performed in analogy to Joachim et al.^[2] 10 µL of a solution containing LecA (40 µM) and sulfo-Cy5-Gal (20 nM, synthesis described in Kuhaudomlarp, Siebs et al.^[5]) in TBS/Ca buffer (20 mM Tris, 147 mM NaCl, 2.6 mM KCl at pH 7.4 supplemented with 1 mM CaCl2) were distributed in into wells of a black 384-well microtiter plate (Greiner Bio-One, Germany, cat no 781900). Then, 10 µL of serial dilutions of compounds (3 mM to 1.5 µM, dilution factor 0.5) in TBS/Ca with 40% DMSO were added in technical triplicates. Final concentrations after mixing were the following: 1.5 mM – 0.73 µM compound, 20 µM LecA, 10 nM sulfo-Cy5-Gal and 20% DMSO. The plate was sealed (EASYseal, Greiner Bio-One, cat no 676001), briefly centrifuged and incubated at room temperature in the dark under shaking conditions. Fluorescence intensity was measured after 1 h and 4 h using a PheraStar FS plate reader (BMG Labtech GmbH, Germany) with spectral filters for excitation at 590 nm and emission at 675 nm and polarization was calculated after blank values of 20 µM LecA in TBS/Ca buffer with 20% DMSO were subtracted from the test compounds. The data were analysed using the four-parameter variable slope model of the MARS Data Analysis software. The top and bottom plateau were assigned based on the control compound methyl α-d-galactoside and the data was reanalysed with these fixed values. If not mentioned otherwise, the experiment was repeated at least three times for each compound and the average and standard deviation are given. In case Triton X-100 was used it was added to the TBS/Ca buffer before the assay.

Compound | IC50
Cc1c(Cl)c(C)[n+]([O-])c(Cl)c1-c1noc(-c2cc(O)c(O)c([N+](=O)[O-])c2)n1 [compound 3, Opicapone, reference compound] | 842 ± 134 µM

Same assay, conditions: IC50, extended dose-response analysis, 20% DMSO, no 2-mercaptoethanol, three experiments

Compound | IC50
O=C(c1cc(O)c(O)c([N+](=O)[O-])c1)c1cncc2ccccc12 [RO0408176] | 449 µM
CCOC(=O)c1cccc(C(=O)c2cc(O)c(O)c([N+](=O)[O-])c2)c1 [RO0620809] | 244 µM
CCCNC(=O)c1cccc(C(=O)c2cc(O)c(O)c([N+](=O)[O-])c2)c1 [RO0621005] | 422 µM
O=C(NC1CCCCC1)c1cccc(C(=O)c2cc(O)c(O)c([N+](=O)[O-])c2)c1 [RO0626783] | 430 µM
CCN(CC)C(=O)c1cccc(C(=O)c2cc(O)c(O)c([N+](=O)[O-])c2)c1 [RO0621115] | 229 µM
CCCCCOC(=O)c1ccc(C(=O)c2cc(O)c(O)c([N+](=O)[O-])c2)cc1 [compound 35] | 72 µM
COCCOCc1ccc(C(=O)c2cc(O)c(O)c([N+](=O)[O-])c2)cc1 [RO0624122] | 289 µM
O=C(NCc1ccccc1)c1cccc(C(=O)c2cc(O)c(O)c([N+](=O)[O-])c2)c1 [RO0626786] | 356 µM
C=CCOC(=O)c1cccc(C(=O)c2cc(O)c(O)c([N+](=O)[O-])c2)c1 [RO0620810] | 139 µM
CCCCOC(=O)c1cccc(C(=O)c2cc(O)c(O)c([N+](=O)[O-])c2)c1 [RO0626778] | 117 µM
O=C(c1cc(O)c(O)c([N+](=O)[O-])c1)c1ccccc1Cl [RO0413301] | 108 µM
O=C(c1ccc(F)cc1)c1cc(O)c(O)c([N+](=O)[O-])c1 [RO0407028] | 370 µM
N#Cc1ccccc1C(=O)c1cc(O)c(O)c([N+](=O)[O-])c1 [RO0413268] | 214 µM
O=C(c1cccc(CO)c1)c1cc(O)c(O)c([N+](=O)[O-])c1 [RO0623430] | 446 µM
O=C(OCCC(O)C(F)(F)F)c1cccc(C(=O)c2cc(O)c(O)c([N+](=O)[O-])c2)c1 (stereo not shown) [RO0622624] | 135 µM
O=C(c1cc(O)c(O)c([N+](=O)[O-])c1)c1ccnc2ccccc12 [RO0405919] | 174 µM
Cc1ccc(C(=O)C(=O)c2cc(O)c(O)c([N+](=O)[O-])c2)cc1 [RO0619291] | 128 µM
Cc1ccc(C(=O)c2cc(O)c(O)c(S(=O)(=O)C(F)(F)F)c2)cc1 [RO0616411] | 338 µM
COC(=O)/C=C/c1cccc(C(=O)c2cc(O)c(O)c([N+](=O)[O-])c2)c1 [RO0619973] | 258 µM
Cc1ccccc1C(=O)c1cc(O)c(O)c([N+](=O)[O-])c1 [RO0412734] | 116 µM
Cc1c(C(=O)c2cc(O)c(O)c([N+](=O)[O-])c2)[nH]c2ccccc12 [RO0403335] | 434 µM
O=[N+]([O-])c1cc(-c2cn3ncsc3n2)cc(O)c1O [RO0199733] | > 1500 µM

Compound | IC50
CC(C)(C)c1ccc(C(=O)c2cc(O)c(O)c([N+](=O)[O-])c2)cc1 [RO0615662] | 144 µM
CCCN(CCC)C(=O)c1c(Br)cc(O)c(O)c1[N+](=O)[O-] [RO0627603] | 285 µM
O=C(c1cc(O)c(O)c([N+](=O)[O-])c1)c1ccccc1C(F)(F)F [RO0413162] | 128 µM
CC(O)CCOC(=O)c1cccc(C(=O)c2cc(O)c(O)c([N+](=O)[O-])c2)c1 (stereo not shown) [RO0621239] | 192 µM
CC(C)(C)COC(=O)c1cccc(C(=O)c2cc(O)c(O)c([N+](=O)[O-])c2)c1 [RO0626777] | 206 µM
O=C(c1cccc(F)c1)c1cc(O)c(O)c([N+](=O)[O-])c1 [RO0412713] | 675 µM
COC(=O)c1ccc(C(=O)c2cc(O)c(O)c([N+](=O)[O-])c2)cc1 [RO0621265] | 330 µM
CCCCCOC(=O)c1cccc(C(=O)c2cc(O)c(O)c([N+](=O)[O-])c2)c1 [compound 34] | 63 µM
C=CCOC(=O)c1ccc(C(=O)c2cc(O)c(O)c([N+](=O)[O-])c2)cc1 [compound 32] | 56 µM
CCCCNC(=O)c1cccc(C(=O)c2cc(O)c(O)c([N+](=O)[O-])c2)c1 [RO0621006] | 283 µM
Cc1c(C(=O)c2cc(O)c(O)c([N+](=O)[O-])c2)[nH]c2ccc(Br)cc12 [compound 30] | 43 µM
O=C(C(=O)c1cc(O)c(O)c([N+](=O)[O-])c1)c1ccccc1 [RO0621161] | 153 µM
CC(C)OC(=O)c1cccc(C(=O)c2cc(O)c(O)c([N+](=O)[O-])c2)c1 [RO0621109] | 156 µM
O=C(OCc1ccccc1)c1ccc(C(=O)c2cc(O)c(O)c([N+](=O)[O-])c2)cc1 [compound 31] | 47 µM
COC(=O)c1cccc(C(=O)c2cc(O)c(O)c([N+](=O)[O-])c2)c1 [RO0620808] | 279 µM
CC(C)c1ccc(C(=O)c2cc(O)c(O)c([N+](=O)[O-])c2)cc1 [RO0615928] | 129 µM
O=C(NCC1CC1)c1cccc(C(=O)c2cc(O)c(O)c([N+](=O)[O-])c2)c1 [RO0621004] | 363 µM
O=C(c1ccncc1)c1cc(O)c(O)c([N+](=O)[O-])c1 [RO0403499] | 597 µM
Cc1ccc(C(=O)c2ccc(O)c(O)c2[N+](=O)[O-])cc1 [RO0614977] | 154 µM
CCCNC(=O)c1ccc(C(=O)c2cc(O)c(O)c([N+](=O)[O-])c2)cc1 [RO0620570] | 347 µM
CCCN(CCC)C(=O)c1cccc(C(=O)c2cc(O)c(O)c([N+](=O)[O-])c2)c1 [RO0621116] | 173 µM
CCN(CC)C(=O)c1ccc(C(=O)c2cc(O)c(O)c([N+](=O)[O-])c2)cc1 [RO0620573] | 438 µM

Same assay, conditions: IC50 in presence of 0.01% Triton X-100, FP assay, 0.01% Triton X-100, one replicate

Compound | IC50
CCCCCOC(=O)c1cccc(C(=O)c2cc(O)c(O)c([N+](=O)[O-])c2)c1 [compound 34] | 88 µM
C=CCOC(=O)c1ccc(C(=O)c2cc(O)c(O)c([N+](=O)[O-])c2)cc1 [compound 32] | 49 µM
Cc1c(C(=O)c2cc(O)c(O)c([N+](=O)[O-])c2)[nH]c2ccc(Br)cc12 [compound 30] | 59 µM
O=C(OCc1ccccc1)c1ccc(C(=O)c2cc(O)c(O)c([N+](=O)[O-])c2)cc1 [compound 31] | 17 µM

Same assay, conditions: IC50 in presence of 0.057% Triton X-100, FP assay, 0.057% Triton X-100, one replicate

Compound | IC50
CCCCCOC(=O)c1ccc(C(=O)c2cc(O)c(O)c([N+](=O)[O-])c2)cc1 [compound 35] | 66 µM
CCCCCOC(=O)c1cccc(C(=O)c2cc(O)c(O)c([N+](=O)[O-])c2)c1 [compound 34] | 61 µM
C=CCOC(=O)c1ccc(C(=O)c2cc(O)c(O)c([N+](=O)[O-])c2)cc1 [compound 32] | 50 µM
O=C(OCc1ccccc1)c1ccc(C(=O)c2cc(O)c(O)c([N+](=O)[O-])c2)cc1 [compound 31] | 16 µM

Same assay, conditions: LecA inhibition, competitive binding assay (FP), tested up to 1.5 mM, n ≥ 2

Compound | IC50
CCN(CC)C(=O)/C(C#N)=C/c1cc(O)c(O)c([N+](=O)[O-])c1 [compound 2, Entacapone, reference compound] | no inhibition
CC(=O)C(=Cc1cc(O)c(O)c([N+](=O)[O-])c1)C(C)=O [compound 1, Nitecapone, reference compound] | no inhibition

Same assay, conditions: LecA inhibition, competitive binding assay (FP), tested up to 1.5 mM, n ≥ 2; listed as Entacapone

Compound | IC50
CCN(CC)C(=O)/C(C#N)=C/c1cc(O)c(O)c([N+](=O)[O-])c1 [compound 2, Entacapone, reference compound] | inactive

Same assay, conditions: LecA inhibition, competitive binding assay (FP), tested up to 1.5 mM, n ≥ 2; listed as Nitecapone

Compound | IC50
CC(=O)C(=Cc1cc(O)c(O)c([N+](=O)[O-])c1)C(C)=O [compound 1, Nitecapone, reference compound] | inactive
